PMC11743672, “Characterization of the ligand-binding properties of odorant-binding protein 38 from Riptortus pedestris when interacting with soybean volatiles” (Frontiers in Physiology, 2025)
Where two headings read alike, the source gives them in different places.

Molecular target: RpedOBP38 (Riptortus pedestris, UniProt A0A2Z4HQ26)
Assay: Fluorescence competitive binding assay (1-NPN displacement)
Conditions: for IC50: 2 μM recombinant RpedOBP38 and 1-NPN, PBS pH 7.4, three replicates
Source text: Recombinant RpedOBP38 binding to putative chemical ligands was characterized with a microplate reader (BioTek Synergy H1, United States). Fluorescence intensity values at the excitation wavelength of 337 nm and a maximum fluorescence emission wavelength of 450 nm were plotted against the free concentration of ligand for the measurement of dissociation constants, selecting candidate ligands from among 36 volatile compounds that included 11 green leaf volatiles ([Chen et al., 2018]; [Guo and Wang, 2019]; [Cheng et al., 2020]; [Hong et al., 2022]; [Tang et al., 2023]; [Zhu et al., 2023]), 11 soybean volatiles ([Wang et al., 2019a]; [Zhu et al., 2022]), 10 repellent activity volatiles ([Zhang et al., 2013]; [Zhang et al., 2014]), and 4 aggregation pheromone compounds ([Leal et al., 1995]; [Yasuda et al., 2007]). HPLC-grade methanol was used for the dissolution of the probe N-phenyl-1-naphthylamine (1-NPN) and all ligands. The ability of RpedOBP38 to bind 1-NPN was assessed by using 10 mM PBS (pH 7.4) to prepare a 2 μM purified protein solution, titrating with 1 mM 1-NPN in methanol to prepare final concentrations from 2–20 μM. RpedOBP38 binding to each ligand was evaluated in a solution consisting of 2 μM purified protein and 1-NPN, followed by titration through the addition of ligands until no further decrease in the fluorescence intensity was observed. Ligands were independently replicated three times, and dissociation constants for each ligand were measured as follows: Ki = [IC50]/(1 + [1-NPN]/K1-NPN), where IC50 denotes the ligand concentration when the fluorescence intensity is half of the initial value [1-NPN] is the free 1-NPN concentration, and K1-NPN is the dissociation constant for the RpedOBP38/1-NPN complex ([Campanacci et al., 2001]).

[1] = values as quoted in running text
[2] = Ki = [IC50]/(1 + [1-NPN]/K1-NPN), 2 μM protein and 1-NPN, Ki > 40 considered weak binding

Sequence of RpedOBP38 (A0A2Z4HQ26 entry or part of it): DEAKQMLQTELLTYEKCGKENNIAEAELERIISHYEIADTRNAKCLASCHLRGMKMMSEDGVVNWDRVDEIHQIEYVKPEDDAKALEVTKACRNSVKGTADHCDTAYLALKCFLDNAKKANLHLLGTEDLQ

| Compound | Ki | IC50 | Ki [1] | Ki [2] |
| --- | --- | --- | --- | --- |
| C=C(C)C1CC=C(C)C(=O)C1 (single isomer, unassigned; (-)) [(−)-carvone] | 27.2 ± 3.88 µM | 36.2 ± 5.17 µM | 27.2 µM | – |
| CC1=CC[C@](O)(C(C)C)CC1 [(+) -4-terpineol] | 14 ± 0.321 µM | 18.7 ± 0.428 µM | 14 µM | – |
| C=C(C)[C@H]1CC=C(C)C(=O)C1 [(+)-carvone] | – | > 40 µM | – | > 40 µM |
| CC1=CC[C@@](O)(C(C)C)CC1 [(−) -4-terpineol] | – | > 40 µM | – | > 40 µM |
| CC1=CCC2CC1C2(C)C (stereo not drawn) [(−)-α-pinene] | – | > 40 µM | – | > 40 µM |
| CCCCCCCCCCCCCCOC(=O)C(C)C [myristyl isobutyrate] | – | > 40 µM | – | > 40 µM |
